# Several values for one entry are separate records, joined by “and”; a condition that tells them apart may be missing. Identical values can stand only once. Like-named read-outs stand apart in the source and are kept apart here. Marks after values point to notes of the source that are not given here.
# How the values were obtained:
# [1] = tested on: vancomycin-intermediate Staphylococcus aureus (VISA); experiment: Broth microdilution MIC (Example 12); type: cell-based; conditions: Staphylococcus aureus, VISA, VISA isolates; read-out: MIC values
# P. aeruginosa [2] = experiment: Checkerboard FIC/FICI assay; type: cell-based, Pseudomonas aeruginosa; conditions: for Drug B MIC: Colistin alone (checkerboard with BisEDT); for FICB / MICB: by checkerboard
# [3] = tested on: Burkholderia cepacia complex; experiment: Checkerboard FIC/FICI assay; type: cell-based, Burkholderia spp.
# P. aeruginosa [4] = experiment: Broth microdilution MIC (Example 10); type: cell-based, Pseudomonas aeruginosa; conditions: initial MIC testing
# [5] = tested on: Burkholderia cepacia complex; type: cell-based, Burkholderia spp.; conditions: initial MIC testing
# Candida glabrata = experiment: Antifungal broth microdilution (Example 13); type: cell-based; conditions: 50% inhibition
# Aspergillus spp. = experiment: Antifungal broth microdilution (Example 13); type: cell-based, A. niger, A. terreus, A. fumigatus, A. flavus; conditions: minimum effective concentration
# Candida krusei = experiment: Antifungal broth microdilution (Example 13); type: cell-based; conditions: 50% inhibition
# Candida auris = experiment: Antifungal broth microdilution (Example 13); type: cell-based; conditions: 50% inhibition
# fungal pathogens = experiment: Antifungal activity, NIH/NIAID sponsored study; type: cell-based; conditions: 100% endpoint
# [6] = P. aeruginosa 6322, Colistin in combination with BisEDT
# [7] = P. aeruginosa 6977, Colistin in combination with BisEDT
# [8] = P. aeruginosa 7745, Colistin in combination with BisEDT
# [9] = P. aeruginosa isolate 1553 (TOB-R, AMK-R, CIP-R)
# [10] = P. aeruginosa isolate 7745 (MEM-R, CIP-R, AZT-R)
# [11] = P. aeruginosa isolate 7762 (MEM-I, CIP-I)
# [12] = P. aeruginosa isolate 8798 (MEM-R, TOB-R, AMK-R, CIP-R, AZT-R, COL-R)
# [13] = P. aeruginosa 6977, Aztreonam in combination with BisEDT
# [14] = B. cepacia 546, Aztreonam in combination with BisEDT, by checkerboard
compound,measurement,setting,value
"CC(=O)NC[C@H]1CN(c2ccc(N3CCOCC3)c(F)c2)C(=O)O1 [linezolid, reference compound]",MIC,[1],< 4 µg/mL
Colistin,Drug B MIC,P. aeruginosa [2]; P. aeruginosa 6322,0.5 µg/mL
same,FICB,P. aeruginosa [2]; [6],1
same,MICB,P. aeruginosa [2]; [6],0.5 µg/mL
same,Drug B MIC,P. aeruginosa [2]; P. aeruginosa 6977,1 µg/mL
same,FICB,P. aeruginosa [2]; [7],1
same,MICB,P. aeruginosa [2]; [7],1 µg/mL
same,Drug B MIC,P. aeruginosa [2]; P. aeruginosa 7745,0.5 µg/mL
same,FICB,P. aeruginosa [2]; [8],1
same,MICB,P. aeruginosa [2]; [8],0.5 µg/mL
same,Drug B MIC,P. aeruginosa [2]; P. aeruginosa 9108,0.0005 µg/mL
same,Drug B MIC,P. aeruginosa [2]; isolate 8798 (organism name not given),>0.256 µg/mL
same,FICB,"[3]; B. multivorans 1795, FIC of Colistin (Drug B) in combination with BisEDT",1
C[C@H]1[C@H](NC(=O)/C(=N\OC(C)(C)C(=O)O)c2csc(N)n2)C(=O)N1S(=O)(=O)O [AZT],MIC,"P. aeruginosa [4]; P. aeruginosa isolate 103, QC strain",[…]
same,MIC,"[3]; B. cepacia isolate 1793, during FIC testing",128 µg/mL
CC[C@H](C)C[C@H](C)CCCCCCCCC(=O)N[C@H]1C[C@@H](O)[C@@H](NCCN)NC(=O)[C@@H]2[C@@H](O)CCN2C(=O)[C@H]([C@H](O)CCN)NC(=O)[C@H]([C@H](O)[C@@H](O)c2ccc(O)cc2)NC(=O)[C@@H]2C[C@@H](O)CN2C(=O)[C@H]([C@@H](C)O)NC1=O [CASP],MIC2,"Candida glabrata; C. glabrata ATCC 90030, Susceptible",0.12 µg/mL
same,MIC2,"Candida glabrata; C. glabrata ATCC MYA-2950, Susceptible",0.12 µg/mL
same,MIC2,"Candida glabrata; C. glabrata MMX 7087, Susceptible",0.12 µg/mL
same,MIC2,"Candida glabrata; C. glabrata MMX 7093, FLU-R",0.12 µg/mL
same,MIC2,"Candida glabrata; C. glabrata MMX 7101, FLU-R",0.12 µg/mL
same,MIC2,"Candida glabrata; C. glabrata MMX 7103, CASP-R, MICA-R",>8 µg/mL
same,MIC2,"Candida glabrata; C. glabrata MMX 7111, Susceptible",0.12 µg/mL
same,MIC2,"Candida glabrata; C. glabrata MMX 7285, CASP-R, MICA-R",0.5 µg/mL
same,MIC2,"Candida glabrata; C. glabrata MMX 7307, CASP-R, MICA-R, FLU-R",>8 µg/mL
same,MIC2,"Candida glabrata; C. glabrata MMX 7549, Susceptible",0.06 µg/mL
same,MEC,Aspergillus spp.; A. flavus ATCC 22546,0.06 µg/mL
same,MEC,Aspergillus spp.; A. flavus ATCC 204304,0.06 µg/mL
same,MEC,Aspergillus spp.; A. flavus MMX 7935,0.03 µg/mL
same,MEC,Aspergillus spp.; A. fumigatus ATCC 204305,0.25 µg/mL
same,MEC,Aspergillus spp.; A. fumigatus ATCC MYA-3626,0.06 µg/mL
same,MEC,Aspergillus spp.; A. fumigatus MMX 5934,0.12 µg/mL
same,MEC,"Aspergillus spp.; A. fumigatus MMX 5938, 48 hr only, insufficient growth for 24 hr read",0.12^b μg/mL
same,MEC,Aspergillus spp.; A. fumigatus MMX 5939,0.12 µg/mL
same,MEC,"Aspergillus spp.; A. niger ATCC 29508, 48 hr only, insufficient growth for 24 hr read",0.06^b μg/mL
same,MEC,"Aspergillus spp.; A. terreus MMX 8229, 48 hr only, insufficient growth for 24 hr read",0.12^b μg/mL
same,MIC2,"Candida krusei; C. krusei ATCC 6258, MICA-I",0.25 µg/mL
same,MIC2,"Candida krusei; C. krusei ATCC 14243, Susceptible",0.012 µg/mL
same,MIC2,"Candida krusei; C. krusei ATCC 96685, Susceptible",0.12 µg/mL
same,MIC2,"Candida krusei; C. krusei MMX 7125, Susceptible",0.25 µg/mL
same,MIC2,"Candida krusei; C. krusei MMX 7128, Susceptible",0.25 µg/mL
same,MIC2,"Candida krusei; C. krusei MMX 7141, Susceptible",0.25 µg/mL
same,MIC2,"Candida krusei; C. krusei MMX 7153, MICA-R",0.25 µg/mL
same,MIC2,"Candida krusei; C. krusei MMX 7155, Susceptible",0.25 µg/mL
same,MIC2,"Candida krusei; C. krusei MMX 7563, Susceptible",0.12 µg/mL
same,MIC2,"Candida krusei; C. krusei MMX 9878, MICA-I, VORI-I",0.25 µg/mL
same,MIC2,"Candida auris; C. auris MMX 9862, Susceptible",0.12 µg/mL
same,MIC2,"Candida auris; C. auris MMX 9863, FLU-R, VORI-R",0.12^b μg/mL
same,MIC2,"Candida auris; C. auris MMX 9864, FLU-R, VORI-R",0.25^b μg/mL
same,MIC2,"Candida auris; C. auris MMX 9865, FLU-R, VORI-R",0.25^b μg/mL
same,MIC2,"Candida auris; C. auris MMX 9866, FLU-R, VORI-R",0.12^b μg/mL
same,MIC2,"Candida auris; C. auris MMX 9867, FLU-R, VORI-R",0.12 µg/mL
same,MIC2,"Candida auris; C. auris MMX 9868, FLU-R, VORI-R",0.25 µg/mL
same,MIC2,"Candida auris; C. auris MMX 9869, FLU-R, VORI-R",0.25 µg/mL
same,MIC2,"Candida auris; C. auris MMX 9870, FLU-R, VORI-R",0.25 µg/mL
same,MIC2,"Candida auris; C. auris MMX 9871, Susceptible",0.25^b μg/mL
C[C@H]1[C@H](NC(=O)/C(=N\OC(C)(C)C(=O)O)c2csc(N)n2)C(=O)N1S(=O)(=O)O [Aztreonam],FICB,P. aeruginosa [2]; [13],[…]
same,MICB,"[3]; B. cepacia 1793, MIC of Aztreonam (Drug B) in combination with BisEDT",128 µg/mL
NC[C@H]1O[C@H](O[C@H]2[C@H](O)[C@@H](O[C@H]3O[C@H](CO)[C@@H](O)[C@H](N)[C@H]3O)[C@H](N)C[C@@H]2N)[C@H](N)C[C@@H]1O [Topramycin],FICB,"[3]; B. cepacia 546, Topramycin in combination with BisEDT, by checkerboard",0.5
CC[C@@H]([C@H](C)O)n1ncn(-c2ccc(N3CCN(c4ccc(OC[C@@H]5CO[C@@](Cn6cncn6)(c6ccc(F)cc6F)C5)cc4)CC3)cc2)c1=O [Posaconazole],MIC,"fungal pathogens; Paecilomyces variotii, read-out: Antifungal activity, MIC 100%, P. variotii CLSI QC",≤ 0.03 µg/mL
same,MIC,"fungal pathogens; Rhizopus arrhizus, read-out: Antifungal activity, MIC 100%, R. arrhizus RA1",4 µg/mL
same,MIC,"fungal pathogens; Rhizopus arrhizus, read-out: Antifungal activity, MIC 100%, R. arrhizus RA2",0.06 µg/mL
same,MIC,"fungal pathogens; Rhizopus arrhizus, read-out: Antifungal activity, MIC 100%, R. arrhizus RA3",0.125 µg/mL
O=C(O)c1cn(C2CC2)c2cc(N3CCNCC3)c(F)cc2c1=O [CIP],MIC,P. aeruginosa [4]; [9],4 µg/mL
same,MIC,P. aeruginosa [4]; [10],4 µg/mL
same,MIC,P. aeruginosa [4]; [11],7 µg/mL
same,MIC,P. aeruginosa [4]; [12],4 µg/mL
same,MIC,"P. aeruginosa [2]; isolate 103 (ATCC 25922), during FIC testing, each agent tested alone for QC, one replicate",1 µg/mL

# Source: patent US20230124862A1, “BISMUTH THIOL COMPOUNDS AND COMPOSITIONS AND METHODS OF TREATING MICROBIAL CO-INFECTIONS” (Microbion Corporation, priority 2020, published 2023)
